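Values below derive from 48-hour exposures of cells grown in 96-well plates, with endpoints linearly interpolated between the two concentrations bracketing the appropriate inhibition level. The concentration for 50% growth inhibition is given as GI50. TGI: concentration producing complete growth inhibition.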

Among the data in PubChem BioAssay (NCI) are GI50 and TGI values, retold here.

What all share (assay): NCI-60 cell line screen, 48 h
Experiment [1] relates to HOP-62 NSCLC.
The test system of experiment [2] is SNB-19 CNS.
Experiment [3] deals with SN12C renal.
In experiment [4] the test system is ACHN renal.
In experiment [5] the test system is SK-MEL-2 melanoma.
The subject of experiment [6] is SNB-75 CNS.
Experiment [7] concerns CAKI-1 renal.
The subject of experiment [8] is M14 melanoma.
Experiment [9] relates to DU-145 prostate.
The subject of experiment [10] is K-562 leukemia.

With `COc1ccccc1[As]=[As]c1ccccc1OC` (stereo not given), the GI50 is 0.05 µM in experiment [1]; 0.065 µM in [2]; 0.0489 µM in experiment [3]; 0.0613 µM in experiment [4]; 0.157 µM in experiment [5]; 0.0305 µM in experiment [6]. Besides, the GI50 in [7] is 0.066 µM; in experiment [8], 0.0407 µM; in experiment [9] it was 0.0542 µM; in [10] it was 0.0324 µM. For the same compound, the TGI turned out to be 0.164 µM in experiment [1]; 0.193 µM in experiment [2]; 0.179 µM in experiment [3]; 0.186 µM in [4]; 0.3 µM in [5]; 0.13 µM in experiment [6]. Also, the TGI in [7] worked out at 0.202 µM; in experiment [8], 0.147 µM; in experiment [9], 0.173 µM.
Take `Oc1ccc(C(O)(c2ccccc2)c2ccccc2)c2ccccc12`: the TGI in [1] came to 7.16 µM; in experiment [2], 19.8 µM; in experiment [3] it was 6.87 µM; in experiment [4], 3.73 µM; in experiment [5], 7.25 µM; in [6] it was 18.2 µM. Moreover, the TGI turned out to be 11.1 µM in [7], 10.7 µM in experiment [8], 14 µM in experiment [9] and 23.5 µM in experiment [10].
For the compound `c1ccc(Oc2ccc(Nc3ncc(-c4ccccc4)o3)cc2)cc1`, the GI50 in experiment [1], in experiment [2], in experiment [3], in experiment [4], in [5] and in experiment [6] was greater than 25 µM throughout. For the same compound, the GI50 in experiment [7], in experiment [8], in experiment [9] and in [10] was greater than 25 µM each time. The TGI in experiment [1], in experiment [2], in experiment [3], in [4], in experiment [5] and in [6] was greater than 25 µM in each case. Besides, the TGI in [7], in [8], in [9] and in experiment [10] was greater than 25 µM in each case.
For the compound `Fc1ccc(-c2nn3ccccc3c2-c2ccncc2)cc1`, the GI50 in experiment [1] is greater than 25 µM; in experiment [2], greater than 25 µM; in [3], greater than 25 µM; in experiment [4], 12.1 µM; in [5] it was greater than 25 µM; in [6] it was greater than 19.7 µM. In addition, the GI50 in experiment [7] is 11.8 µM; in [8], greater than 25 µM; in [9], greater than 25 µM; in [10], greater than 25 µM. For the same compound, the TGI in [1], in experiment [2], in experiment [3], in [4], in experiment [5] and in experiment [6] was greater than 25 µM in each case. Besides, the TGI in experiment [7], in experiment [8], in experiment [9] and in [10] was greater than 25 µM throughout.
`CCN(CC)CCN1c2nc3ccccc3cc2Sc2cc3ccccc3nc21`: the GI50 in [1] is 1.42 µM; in experiment [2] it was 3.03 µM; in experiment [3], 2.28 µM; in experiment [4], 2.58 µM; in [5] it was 1.69 µM; in experiment [6], 1.32 µM. The GI50 was 1.8 µM in experiment [7], 1.64 µM in experiment [8], 3.59 µM in experiment [9] and 3.04 µM in experiment [10]. The TGI was 3.06 µM in [1]; 11.9 µM in [2]; 12.2 µM in [3]; 9.29 µM in [4]; 4.4 µM in experiment [5]; 6.22 µM in experiment [6]. Besides, the TGI in experiment [7] is 6.11 µM; in experiment [8] it was 3.38 µM; in [9], 11.3 µM; in [10], greater than 100 µM.
On to `COc1ccc(-c2cn(-c3ccc(OC)c(OC)c3)c(=O)[nH]2)cc1`, for which the GI50 in [1] is greater than 100 µM; in experiment [2], greater than 100 µM; in [3], greater than 100 µM; in experiment [4], greater than 100 µM; in [5] it was greater than 100 µM; in [6] it was 24.6 µM. Moreover, the GI50 was greater than 100 µM in experiment [7], greater than 100 µM in experiment [8], greater than 100 µM in [9] and 37.4 µM in experiment [10]. For the same compound, the TGI in experiment [1] was greater than 100 µM; in experiment [2], greater than 100 µM; in experiment [3], greater than 100 µM; in experiment [4] it was greater than 100 µM; in [5], greater than 100 µM; in [6], 98.7 µM. Also, the TGI in experiment [7], in [8], in [9] and in experiment [10] was greater than 100 µM each time.
Turning to `CNC(=O)c1c(F)cccc1Nc1nc(Nc2cc3c(cc2OC)CCN3C(=O)CN(C)C)nc2[nH]ccc12`, the GI50 is 5.5 µM in [1]; 7.04 µM in experiment [2]; 3.88 µM in experiment [3]; 8.8 µM in experiment [4]; 4.87 µM in [5]; 11.7 µM in [6]. The GI50 is 16.1 µM in experiment [7], 1.64 µM in experiment [8], 7.37 µM in experiment [9] and 2.58 µM in experiment [10]. Besides, the TGI in [1] was 20.8 µM; in [2], greater than 62.8 µM; in experiment [3], 9.81 µM; in [4], 23.1 µM; in [5], 19.8 µM; in experiment [6], 24.7 µM. Besides, the TGI was determined as 45.7 µM in experiment [7], 3.37 µM in [8], 24.9 µM in experiment [9] and 6.41 µM in experiment [10].
For the compound `CC(=O)Nc1ccc(S(=O)(=O)N=S(C)C)cc1`, the TGI in experiment [1], in [2], in [3], in experiment [4], in [5] and in [6] was greater than 100 µM throughout. Further, the TGI in [7], in [8], in [9] and in experiment [10] was greater than 100 µM each time.
For the compound `CN(C)Cc1ccc(NC(=O)c2cncc(C#Cc3cnc(N)c4ncccc34)c2)cc1F`, the GI50 in experiment [1] was 13.4 µM; in [3] it was 1.92 µM; in [4] it was 3.28 µM; in experiment [5], 14 µM; in [6], 1.38 µM; in experiment [7] it was 15.8 µM. The figures for the GI50 in [9] and in [10] were 1.77 µM and 0.0566 µM, respectively. The TGI came out at 42.8 µM in [1]; 3.56 µM in experiment [3]; 11.4 µM in [4]; 35.3 µM in experiment [5]; 5.73 µM in [6]; 32.3 µM in experiment [7]. Also, the TGI in experiment [9] was determined as 3.32 µM; in experiment [10], 1.85 µM.
